Active and inactive are the calls of the source. The rule behind the calls is not given here.
Columns and labels:
[1] = system: Spodoptera exigua; assay: Insecticidal activity against Spodoptera exigua assessed as reduction of weight at 5 umol/g in artificial diet after 9 days relative to control; assay type: functional, organism-based
[2] = system: Spodoptera exigua; assay: Insecticidal activity against Spodoptera exigua assessed as increase of larval mortality at 5 umol/g in artificial diet after 9 days relative to control; assay type: functional
[3] = system: Spodoptera exigua; assay: Insecticidal activity against Spodoptera exigua; assay type: functional

SMILES	Activity [1]	Activity [2] [%]	LC50 [3] [µg/g]
CCCCCCCCCCCCCCc1ccco1	Active	<50	
CCCCCCCCCCCCCCCCCCc1ccco1		68	
CCCCCCCCCCCCCCCCCc1ccco1 [2-(HEPTADECYL)FURAN]		95	1206
CCCCCCCCCCCCCCCc1ccco1		93	1031
